Source: patent US10775375B2, “Methods for identifying modulators of calcium-sensing receptors” (MARS, INCORPORATED, priority 2014, dated 2020)
Where two headings read alike, the source gives them in different places.

Target: T1, feline calcium-sensing receptor (fCaSR) (Felis catus, UniProt C7FF08, X1044R)
T1 sequence (C7FF08 1-1081 X1044R): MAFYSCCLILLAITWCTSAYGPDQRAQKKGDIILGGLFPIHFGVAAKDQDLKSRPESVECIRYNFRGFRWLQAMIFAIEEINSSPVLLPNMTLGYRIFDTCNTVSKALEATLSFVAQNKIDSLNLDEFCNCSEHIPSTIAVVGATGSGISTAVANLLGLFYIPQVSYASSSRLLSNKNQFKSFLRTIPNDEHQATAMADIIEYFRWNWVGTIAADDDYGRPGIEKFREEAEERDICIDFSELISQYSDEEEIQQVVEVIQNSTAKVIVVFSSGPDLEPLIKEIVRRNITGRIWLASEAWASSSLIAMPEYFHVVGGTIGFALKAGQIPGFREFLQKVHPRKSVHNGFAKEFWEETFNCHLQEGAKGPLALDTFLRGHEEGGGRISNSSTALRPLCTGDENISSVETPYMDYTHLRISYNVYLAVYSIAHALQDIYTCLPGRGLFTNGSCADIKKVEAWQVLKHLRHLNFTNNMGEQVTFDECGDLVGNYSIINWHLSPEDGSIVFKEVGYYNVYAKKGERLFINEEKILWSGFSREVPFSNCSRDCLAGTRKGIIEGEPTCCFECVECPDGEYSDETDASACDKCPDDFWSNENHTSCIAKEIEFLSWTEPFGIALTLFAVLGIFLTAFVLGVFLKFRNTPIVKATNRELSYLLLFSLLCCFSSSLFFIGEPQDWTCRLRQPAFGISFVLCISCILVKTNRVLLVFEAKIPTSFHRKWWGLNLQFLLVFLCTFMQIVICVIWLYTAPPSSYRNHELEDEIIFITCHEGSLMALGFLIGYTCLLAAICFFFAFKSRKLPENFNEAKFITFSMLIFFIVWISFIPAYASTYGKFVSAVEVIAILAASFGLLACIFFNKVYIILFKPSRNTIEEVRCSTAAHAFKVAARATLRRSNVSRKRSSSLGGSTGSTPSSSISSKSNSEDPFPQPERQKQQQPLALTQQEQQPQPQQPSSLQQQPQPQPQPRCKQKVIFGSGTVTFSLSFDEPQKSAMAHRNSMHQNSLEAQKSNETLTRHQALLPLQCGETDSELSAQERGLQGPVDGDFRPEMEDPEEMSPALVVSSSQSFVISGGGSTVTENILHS
Experiment: In vitro cellular luminescence assay for activation of fCaSR (HEK T-Rex/natClytin clone K 5.1, FLIPR Tetra), agonist mode and PAM mode
Assay type: cell-based
Details: for CaSR agonists and PAMs (mode of action on CaSR): classification as agonist, PAM or not active
Excerpt: Summary. The full length coding sequence of the calcium-sensing receptor (CaSR, a GPCR (3, C or Glutamate family), naturally coupled to Gαq/11 and Gαi (ligand-directed signaling)) from Felis catus (fCaSR) having the sequence described by SEQ ID NO: 7 was synthesized and sub-cloned into suitable expression vectors. The cat CaSR expression constructs were stably transfected in two mammalian cell lines, the HEK-natClytin and the HEK T-Rex/natClytin, two cell lines that allow for detection of changes in intracellular calcium levels through luminescence. A pure selected clone (K 5.1) was used to analyze 12 CaSR ligands (including calcium as a reference agonist control) in a high-throughput screening (HTS) multi-plate test for agonist and positive allosteric modulator (PAM) effects.
A final pure selected clone (K 5.1) was analyzed in a HTS multi-plate test for agonist or positive allosteric modulator (PAM) effects of 12 CaSR ligands (including calcium as a reference agonist control). 10.000 cw of K 5.1 were seeded on poly-D-lys coated 384 well MTPs in medium containing 1 μg/mL of Doxycycline. Screening with the 12 ligands (including calcium control) was conducted 24 hours later. […] For each ligand that activated CaSR as an agonist or PAM, the EC50 value of the ligand was determined.
Detection of CaSR receptor activation. Transfected cells were analyzed for a response to a reference agonist (calcium) or various CaSR ligands by detecting Ca^2+ sensitive photoprotein luminescence. The experiments were performed in a 384 well format according to one of the following procedures: • 7.500 cw were plated on poly-D-lys coated 384 well microtiter plates (MTPs). 24 h later, medium was manually discarded and replaced with fresh medium containing 1 μg/mL of Doxycycline. Experiments were then carried out 48 h after seeding. • 10.000 cw were plated on poly-D-lys coated 384 well MTPs in medium containing 1 μg/mL of Doxycycline. Experiments were carried out 24 hrs later.
On the day of the experiment, medium was removed by plate overthrow and tapping on a paper towel. Cells were then incubated for 3-4 hrs at 37° C. with 10 μM coelenterazine dissolved in 2 mM Ca^2+ or Ca^2+-Free Tyrode's Buffer (20 μL). Cells were exposed to calcium control and/or ligand and the luminescence changes over a period of 1 minute (at 35.000 gain of sensitivity) were monitored using a FLIPR® Tetra screening system. For agonist evaluation, a single exposure protocol was applied (ligands 1º injection, 20 μL-2×), whereas for PAM evaluation a double injection protocol was applied as following: • 1° injection: ligands dose-response (20 μL-2×) • 2° injection: Reference agonist EC20 (20 μL-3×) • Data Analysis. FLIPR® Tetra measurements were analysed with Screenworks© software (Molecular Devices, Version 3.0.1.4) and data were exported as Maximum statistics of Absolute Response (RLU) calculated after compound injection. RLU is obtained applying “Subtract Bias on Sample n” (where n=Time point of compound injection). Mean and standard deviation values were calculated on the exported data with Excel software, and then values were used to create sigmoidal dose-response curves (variable slope) or histograms with GraphPad PRISM® software (Version 6). The obtained EC50/IC50 values were used to calculate EC50/[…] values according to the following formula: ECX=[(X/100−X)1/HillSlope]*EC50
Cell lines, Medium and Culture Conditions. The experiments were done using HEK-natClytin or HEK T-Rex/natClytin reporter cell lines that were generated by stable transfection of the photoprotein natClytin into HEK-293 or HEK-293 T-Rex (HEK T-Rex, Invitrogen) cell lines respectively.
For experimental conditions, cells were plated on poly-D-lys coated 384 well MTPs according to one of the following conditions: • 7.500 cw.

| Molecule | CaSR agonists and PAMs (mode of action on CaSR) | EC50 | also measured |
| --- | --- | --- | --- |
| O.O.[Ca+2].[Cl-].[Cl-] [Calcium (Ca^2+), Calcium chloride (dihydrate)] | (agonist) | – | – |
| C[C@@H](NCCCc1cccc(C(F)(F)F)c1)c1cccc2ccccc12 [Cinacalcet] | Cinacalcet (PAM) | 0.001 mM | CaSR agonists and PAMs (mode of action on CaSR) (listed as cinacalcet): activated CaSR as PAMs |
| NC(CCC(=O)NC(CS)C(=O)NCC(=O)O)C(=O)O [L-Glutathione, L-Glutathione (γ-Glu-Cys-Gly)] | L-Glutathione (agonist) | – | EC50 (agonist mode, single injection, HEK T-Rex/natClytin-fCaSR clone K 5.1, photoprotein luminescence, tested up to the MAX dose in c1/c2, read-out: Agonist EC50): 8.2 mM |
| NCC1O[C@H](O[C@@H]2C(N)C[C@@H](N)C(O)C2O[C@@H]2O[C@H](CO)C(OC3O[C@@H](CN)C(O)C(O)[C@H]3N)C2O)C(N)C(O)[C@@H]1O (some centres unmarked) [Neomycin] | Neomycin (agonist) | 10 mM | – |
| NCCCCN [Putrescine] | Putrescine (not active) | – | – |
| NCCCCNCCCN [Spermidine] | Spermidine (agonist) | 1.3 mM | – |
| NCCCNCCCCNCCCN [Spermine] | Spermine (agonist) | – | – |
| Calindol | Calindol (PAM) | – | CaSR agonists and PAMs (mode of action on CaSR) (listed as calindol): activated CaSR as PAMs |
| Magnesium chloride (hexahydrate) [Magnesium (Mg^2+)] | (agonist) | – | – |
| Poly-L-Arginine | Poly-L-Arginine (agonist) | – | Agonist EC50 (agonist mode, single injection, HEK T-Rex/natClytin-fCaSR clone K 5.1, MAX dose 60 μg/mL): 4.6 µg/mL |
